Source: PubChem BioAssay AID1259411 (Chemical Carcinogenesis Research Information System (CCRIS), 2018)
The source made the active and inactive calls. How the calls were made is not given here.

System: rodent carcinogenicity bioassays, tumor incidence
Assay: CCRIS carcinogenicity studies
Details: Dose: 0, Dose: 0
Method in brief: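 Archive of carcinogenicity, mutagenicity, tumor promotion and tumor inhibition results drawn from journals, NCI reports and other sources, expert-reviewed; covers 1985-2011 and is no longer updated.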

`C=COC(C)=O` was tested, and the carcinogen call (Species: MOUSE, Strain/Sex: CRL:CD-1(ICR)BR/FEMALE, Route: INHALATION, 50, 200, 600 PPM 6 HR/D 5 D/WK FOR 104 WK (STUDY DURATION: 104 WK), 50, 200, 600 PPM 6 HR/D 5 D/WK FOR 104 WK (STUDY DURATION: 104 WK)) was “inactive; negative”, the carcinogen call (Species: MOUSE, Strain/Sex: CRL:CD-1(ICR)BR/MALE, Route: INHALATION, 50, 200, 600 PPM 6 HR/D 5 D/WK FOR 104 WK (STUDY DURATION: 104 WK), 50, 200, 600 PPM 6 HR/D 5 D/WK FOR 104 WK (STUDY DURATION: 104 WK)) was “inactive; negative” and the carcinogen call (Species: MOUSE, Strain/Sex: SWISS/FEMALE, Route: ORAL, 1000, 5000 PPM IN DRINKING WATER ADMINISTERED FOR DURATION OF STUDY TO OFFSPRING OF MOTHERS EXPOSED TO THE SAME DOSES, 1000, 5000 PPM IN DRINKING WATER ADMINISTERED FOR DURATION OF STUDY TO OFFSPRING OF MOTHERS EXPOSED TO THE SAME DOSES, Tumor Site: Type of Lesion: ZYMBAL GLAND: CARCINOMA, ORAL CAVITY: SQUAMOUS CELL CARCINOMA, TONGUE: SQUAMOUS CELL CARCINOMA, ESOPHAGUS: SQUAMOUS CELL, Tumor Site: Type of Lesion: ZYMBAL GLAND: CARCINOMA, ORAL CAVITY: SQUAMOUS CELL CARCINOMA, TONGUE: SQUAMOUS CELL CARCINOMA, ESOPHAGUS: SQUAMOUS CELL) was “active; positive”. The carcinogen call (Species: MOUSE, Strain/Sex: SWISS/FEMALE, Route: ORAL, 1000, 5000 PPM IN DRINKING WATER FOR DURATION OF STUDY (STUDY DURATION:LIFE SPAN), 1000, 5000 PPM IN DRINKING WATER FOR DURATION OF STUDY (STUDY DURATION:LIFE SPAN), Tumor Site: Type of Lesion: TONGUE: SQUAMOUS CELL CARCINOMA, ESOPHAGUS: SQUAMOUS CELL CARCINOMA, LUNG: ADENOMA OR ADENOCARCINOMA, UTERUS: TUMOR, Tumor Site: Type of Lesion: TONGUE: SQUAMOUS CELL CARCINOMA, ESOPHAGUS: SQUAMOUS CELL CARCINOMA, LUNG: ADENOMA OR ADENOCARCINOMA, UTERUS: TUMOR) was “active; positive”, the carcinogen call (Species: MOUSE, Strain/Sex: SWISS/MALE, Route: ORAL, 1000, 5000 PPM IN DRINKING WATER FOR DURATION OF STUDY (STUDY DURATION: LIFE SPAN), 1000, 5000 PPM IN DRINKING WATER FOR DURATION OF STUDY (STUDY DURATION: LIFE SPAN)) was “inactive; negative” and the carcinogen call (Species: RAT, Strain/Sex: CRL:CD(SD)BR/FEMALE, Route: INHALATION, 50, 200, 600 PPM 6 HR/D 5 D/WK FOR 104 WK (STUDY DURATION: 104 WK), 50, 200, 600 PPM 6 HR/D 5 D/WK FOR 104 WK (STUDY DURATION: 104 WK)) was “inactive; negative”. The carcinogen call (Species: RAT, Strain/Sex: CRL:CD(SD)BR/FEMALE, Route: ORAL, 200, 1000, 5000 PPM IN DRINKING WATER FOR 104 WK ADMINISTERED TO OFFSPRING OF RATS ADMINISTERED THE SAME DOSES BEGINN, 200, 1000, 5000 PPM IN DRINKING WATER FOR 104 WK ADMINISTERED TO OFFSPRING OF RATS ADMINISTERED THE SAME DOSES BEGINN) was “inactive; negative”, the carcinogen call (Species: RAT, Strain/Sex: CRL:CD(SD)BR/MALE, Route: INHALATION, 50, 200, 600 PPM 6 HR/D 5 D/WK FOR 104 WK (STUDY DURATION: 104 WK), 50, 200, 600 PPM 6 HR/D 5 D/WK FOR 104 WK (STUDY DURATION: 104 WK), Tumor Site: Type of Lesion: NASAL CAVITY: TUMOR) was “active; positive” and the carcinogen call (Species: RAT, Strain/Sex: CRL:CD(SD)BR/MALE, Route: ORAL, 200, 1000, 5000 PPM IN DRINKING WATER FOR 104 WK ADMINISTERED TO OFFSPRING OF RATS ADMINISTERED THE SAME DOSES BEGINN, 200, 1000, 5000 PPM IN DRINKING WATER FOR 104 WK ADMINISTERED TO OFFSPRING OF RATS ADMINISTERED THE SAME DOSES BEGINN) was “inactive; negative”. The carcinogen call (Species: RAT, Strain/Sex: F344/FEMALE, Route: ORAL, 1000, 2500 MG/L IN DRINKING WATER 5 D/WK FOR 100 WK (STUDY DURATION: 130 WK), 1000, 2500 MG/L IN DRINKING WATER 5 D/WK FOR 100 WK (STUDY DURATION: 130 WK), Tumor Site: Type of Lesion: UTERUS: CARCINOMA, THYROID: C-CELL ADENOMA, LIVER: NEOPLASTIC NODULE, Tumor Site: Type of Lesion: UTERUS: CARCINOMA, THYROID: C-CELL ADENOMA, LIVER: NEOPLASTIC NODULE) was “active; positive”, the carcinogen call (Species: RAT, Strain/Sex: F344/MALE, Route: ORAL, 1000, 2500 MG/L IN DRINKING WATER 5 D/WK FOR 100 WK (STUDY DURATION: 130 WK), 1000, 2500 MG/L IN DRINKING WATER 5 D/WK FOR 100 WK (STUDY DURATION: 130 WK)) was “inactive; negative” and the carcinogen call (Species: SWISS/MALE, Strain/Sex: ORAL, Route: ORAL, 1000, 5000 PPM IN DRINKING WATER ADMINISTERED FOR DURATION OF STUDY TO OFFSPRING OF MOTHERS EXPOSED TO THE SAME DOSES, 1000, 5000 PPM IN DRINKING WATER ADMINISTERED FOR DURATION OF STUDY TO OFFSPRING OF MOTHERS EXPOSED TO THE SAME DOSES, Tumor Site: Type of Lesion: ZYMBAL GLAND: CARCINOMA, ORAL CAVITY: SQUAMOUS CELL CARCINOMA, TONGUE: SQUAMOUS CELL CARCINOMA, ESOPHAGUS: SQUAMOUS CELL, Tumor Site: Type of Lesion: ZYMBAL GLAND: CARCINOMA, ORAL CAVITY: SQUAMOUS CELL CARCINOMA, TONGUE: SQUAMOUS CELL CARCINOMA, ESOPHAGUS: SQUAMOUS CELL) was “active; positive”.

With `O=[N+]([O-])c1ccc2ccc3c(O)ccc4ccc1c2c43` the carcinogen call (Species: MOUSE, Strain/Sex: B6C3F1/FEMALE, Route: INTRAPERITONEAL, 7 NMOL (TOTAL DOSE), 1/7, 2/7 AND 4/7 OF THE TOTAL DOSE ADMINISTERED WITHIN 24 HR OF BIRTH AND AT 8 AND 15 D OF AGE) was “inactive; negative” and the carcinogen call (Species: MOUSE, Strain/Sex: B6C3F1/MALE, Route: INTRAPERITONEAL, 7 NMOL (TOTAL DOSE), 1/7, 2/7 AND 4/7 OF THE TOTAL DOSE ADMINISTERED WITHIN 24 HR OF BIRTH AND AT 8 AND 15 D OF AGE) was “inactive; negative”.

`CC(O)CN(C)N=O` (stereo not given) was tested, and the carcinogen call (Species: HAMSTER, Strain/Sex: SYRIAN/FEMALE, Route: GAVAGE, 1 MG IN 0.2 ML WATER 1/WK FOR 21 WK FOR A TOTAL DOSE OF 21 MG (STUDY DURATION: 45 WK), Tumor Site: Type of Lesion: LIVER: HEMANGIOSARCOMA OR HEMANGIOMA, LUNG: ALVEOLAR/BRONCHIOLAR ADENOMA, NASAL MUCOSA: CARCINOMA, Tumor Site: Type of Lesion: LIVER: HEMANGIOSARCOMA OR HEMANGIOMA, LUNG: ALVEOLAR/BRONCHIOLAR ADENOMA, NASAL MUCOSA: CARCINOMA) was “active; positive”, the carcinogen call (Species: HAMSTER, Strain/Sex: SYRIAN/FEMALE, Route: GAVAGE, 5 MG IN 0.2 ML WATER FOR 4 WK THEN 2 MG 1/WK FOR 14 WK FOR A TOTAL DOSE OF 48 MG (STUDY DURATION: 45 WK), Tumor Site: Type of Lesion: LIVER: HEMANGIOSARCOMA, HEPATOCELLULAR ADENOMA, CHOLANGIOCELLULAR CARCINOMA, CHOLANGIOCELLULAR ADENOMA, PANCREAS: DUCTAL) was “active; positive” and the carcinogen call (Species: RAT, Strain/Sex: F344/FEMALE, Route: GAVAGE, 4, 10 MG/WK FOR A TOTAL DOSE OF 0.6, 0.4 MMOL (STUDY DURATION: 50 WK), 4, 10 MG/WK FOR A TOTAL DOSE OF 0.6, 0.4 MMOL (STUDY DURATION: 50 WK), Tumor Site: Type of Lesion: ESOPHAGUS: TUMOR, KIDNEY: TUMOR, THYROID: TUMOR, LUNG: TUMOR, Tumor Site: Type of Lesion: ESOPHAGUS: TUMOR, KIDNEY: TUMOR, THYROID: TUMOR, LUNG: TUMOR) was “active; positive”. For the same compound, the carcinogen call (Species: RAT, Strain/Sex: F344/MALE, Route: GAVAGE, 4 MG/WK FOR A TOTAL DOSE OF 0.6 MMOL (STUDY DURATION: 50 WK), Tumor Site: Type of Lesion: ESOPHAGUS: TUMOR, NASAL MUCOSA: TUMOR) was “active; positive” and the carcinogen call (Species: RAT, Strain/Sex: WISTAR/MALE, Route: INTRAPERITONEAL, 4.4, 8.8, 17.6 MG/KG IN 0.9% SALINE 1/WK FOR 12 WK (STUDY DURATION: 26 WK), 4.4, 8.8, 17.6 MG/KG IN 0.9% SALINE 1/WK FOR 12 WK (STUDY DURATION: 26 WK), Tumor Site: Type of Lesion: NASAL CAVITY: CARCINOMA, PAPILLOMA) was “active; positive”.

In the case of `c1ccc2c(c1)ccc1c3ccccc3sc21`, the carcinogen call (Species: RAT, Strain/Sex: OSBORNE-MENDEL/FEMALE, Route: INTRAPULMONARY IMPLANT, 1, 3, 6 MG IN BEESWAX AND TRIOCTANOIN IMPLANTED IN LUNG (STUDY DURATION: 141 WK), 1, 3, 6 MG IN BEESWAX AND TRIOCTANOIN IMPLANTED IN LUNG (STUDY DURATION: 141 WK), Tumor Site: Type of Lesion: LUNG: CARCINOMA) was “active; positive”.
